The values below come from patent publication US20060004002A1 (priority 2004, published 2006).

A word on the IC50: it is the midpoint of a concentration-inhibition curve.

In this test the target is T1, Recombinant human Src (Homo sapiens, UniProt P12931).
T1 construct: made in house; host or cells: baculovirus-insect cell system
As to the kind of experiment: Src tyrosine kinase activity assay with poly E4Y and 32P-ATP. The class given is biochemical. The note with it: poly E4Y, 32P-ATP; NI = no inhibition; read-out: IC50 Value Src. The procedure: Recombinant human Src was expressed using the baculovirus-insect cell system and purified as published (Budde et al., 1993 and 2000). Recombinant Csk and the FGF receptor (FGFr) were expressed as […] fusion proteins using the pGEX expression vector and E. coli, and purified as described (Sun & Budde, 1995).
The tyrosine kinase activity of Src, Csk and FGFr was determined using poly E4Y and ^32P-ATP. Briefly, enzymes were assayed in a reaction mixture […] consisting of 0.15 M EPPS-NaOH (pH 8.0) with 6 mM MgCl2, 0.2 mM γ^32P-ATP (0.2-0.4 mCi/μmol), 10% glycerol, 0.1% Triton X-100, and poly E4Y. Poly E4Y is a synthetic peptide whose phosphorylation is measured in this assay by the addition of the radioactively labeled phosphate from the ATP (Budde et al., 1995). […] When ATP was varied (0, 50, 100 and 250 μM), poly E4Y was kept constant at 150 μg/ml.

T1 sequence (P12931 whole entry): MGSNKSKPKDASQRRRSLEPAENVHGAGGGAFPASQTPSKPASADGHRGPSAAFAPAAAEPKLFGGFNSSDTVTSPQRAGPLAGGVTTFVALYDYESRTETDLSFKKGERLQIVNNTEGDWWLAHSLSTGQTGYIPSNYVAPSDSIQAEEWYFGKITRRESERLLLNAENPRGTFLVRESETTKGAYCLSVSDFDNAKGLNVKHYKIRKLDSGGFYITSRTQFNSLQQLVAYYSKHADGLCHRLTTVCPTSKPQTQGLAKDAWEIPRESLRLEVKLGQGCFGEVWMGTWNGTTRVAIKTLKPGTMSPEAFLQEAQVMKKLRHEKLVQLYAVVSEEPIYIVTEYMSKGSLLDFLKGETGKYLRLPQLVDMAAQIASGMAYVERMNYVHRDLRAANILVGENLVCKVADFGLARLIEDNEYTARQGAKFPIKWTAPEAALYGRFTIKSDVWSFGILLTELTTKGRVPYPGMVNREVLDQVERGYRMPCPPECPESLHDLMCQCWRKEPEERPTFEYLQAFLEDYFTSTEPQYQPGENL

In the case of `CCOc1ccccc1-c1sc2c(NN=Cc3ccc(OC)c(O)c3)ncnc2c1OCCN1CCOCC1` [Compound 41, 3-Hydroxy-4-methoxybenzaldehyde (6-(2-ethoxyphenyl)-7-(2-(morpholin-4-yl)-ethoxy)thieno[3,2-d]pyrimidin-4-yl)hydrazone], the concentration for half-maximal inhibition (IC50) amounted to 340 nM. Consider `CCOCc1c(-c2ccccc2OCC)sc2c(NN=Cc3ccc(OC)c(O)c3)ncnc12` [Compound 44], for which the IC50 amounted to 79 nM. Then `CCNc1ccc(-c2sc3c(NN=Cc4ccc(OC)c(O)c4)ncnc3c2C)cc1` [Compound 48, 3-Hydroxy-4-methoxybenzaldehyde (6-(4-N-ethylaminophenyl)-7-methylthieno[3,2-d]pyrimidin-4-yl)hydrazone], with 64 nM; and `CCOc1ccccc1-c1sc2c(NN=Cc3ccc(OC)c(OC)c3)ncnc2c1C` [Compound 53, 3,4-Dimethoxybenzaldehyde (6-(2-ethoxyphenyl)-7-methylthieno[3,2-d]pyrimidin-4-yl)hydrazone], with 4.6 nM; and `CCOc1ccccc1-c1sc2c(NN=Cc3ccc(O)c(OC)c3)ncnc2c1C` [Compound 55], with 3.3 nM. The value for `CCOc1cc(F)ccc1-c1sc2c(NN=Cc3ccc(OC)c(O)c3)ncnc2c1C` [Compound 57, 3-Hydroxy-4-methoxybenzaldehyde (6-(2-ethoxy-4-fluorophenyl)-7-methylthieno[3,2-d]pyrimidin-4-yl)hydrazone] was 4.9 nM; that for `CCOc1cc(F)ccc1-c1sc2c(NN=Cc3ccc(OC)c(O)c3)ncnc2c1O` [Compound 61, 3-Hydroxy-4-methoxybenzaldehyde (6-(2-ethoxy-4-fluorophenyl)-7-hydroxythieno[3,2-d]pyrimidin-4-yl)hydrazone] was 6 nM. For `CCOc1ccccc1-c1sc2c(NN=Cc3cc(OC)c(OC)c(OC)c3)ncnc2c1C` [Compound 63, 3,4,5-Trimethoxybenzaldehyde (6-(2-ethoxyphenyl)-7-methylthieno[3,2-d]pyrimidin-4-yl)hydrazone], the half-inhibitory concentration (IC50) was 1.3 nM.

Turning to `CCOc1ccccc1-c1sc2c(NN=Cc3cc(O)c(OC)c(OC)c3)ncnc2c1C` [Compound 64, 3,4-Dimethoxy-5-hydroxybenzaldehyde (6-(2-ethoxyphenyl)-7-methylthieno[3,2-d]pyrimidin-4-yl)hydrazone], the 50% inhibitory concentration (IC50) was 1.2 nM.

`CCOc1ccccc1-c1sc2c(NN=Cc3cc(OC)c(O)c(OC)c3)ncnc2c1C` [Compound 65, 3,5-Dimethoxy-4-hydroxybenzaldehyde (6-(2-ethoxyphenyl)-7-methylthieno[3,2-d]pyrimidin-4-yl)hydrazone]: the IC50 turned out to be 0.99 nM. The value for `CCOc1ccccc1-c1sc2c(NN=Cc3ccc4c(c3)OCCO4)ncnc2c1C` [Compound 66, 2,3-Dihydro-benzo[1,4]dioxine-6-carbaldehyde (6-(2-ethoxyphenyl)-7-methylthieno[3,2-d]pyrimidin-4-yl)hydrazone] was 6.4 nM; that for `CCOc1ccccc1-c1sc2c(NN=Cc3cccnc3)ncnc2c1CO` [Compound 70, 3-Pyridinecarboxaldehyde (6-(2-ethoxyphenyl)-7-hydroxymethylthieno[3,2-d]pyrimidin-4-yl)hydrazone] was 20 nM; that for `CCOc1ccccc1-c1sc2c(NN=Cc3cccs3)ncnc2c1CO` [Compound 71, 2-Thiophenecarboxaldehyde (6-(2-ethoxyphenyl)-7-hydroxymethylthieno[3,2-d]pyrimidin-4-yl)hydrazone] was 28 nM. For the compound `CCOc1ccccc1-c1sc2c(NN=Cc3ccc(C(=O)O)cc3)ncnc2c1CO` [Compound 72, 4-Carboxybenzaldehyde (6-(2-ethoxyphenyl)-7-hydroxymethylthieno[3,2-d]pyrimidin-4-yl)hydrazone], the half-maximal inhibitory concentration (IC50) was determined as 32 nM.

For `CCOc1ccccc1-c1sc2c(NN=Cc3cccnc3)ncnc2c1O` [Compound 73, 3-Pyridinecarboxaldehyde (6-(2-ethoxyphenyl)-7-hydroxythieno[3,2-d]pyrimidin-4-yl)hydrazone], the IC50 was found to be 3 nM. For the compound `CCOc1ccccc1-c1sc2c(NN=Cc3ccc(C(=O)O)cc3)ncnc2c1O` [Compound 74, 4-Carboxybenzaldehyde (6-(2-ethoxyphenyl)-7-hydroxythieno[3,2-d]pyrimidin-4-yl)hydrazone], the half-maximal inhibitory concentration (IC50) came out at 0.29 nM.

Take `Cc1c(-c2ccc(O)cc2)sc2c(NN=Cc3cccnc3)ncnc12` [Compound 75, 3-Pyridinecarboxaldehyde (6-(4-hydroxyphenyl)-7-methylthieno[3,2-d]pyrimidin-4-yl]hydrazone]: the concentration for half-maximal inhibition (IC50) was 21 nM. Turning to `Cc1c(-c2ccc(O)cc2)sc2c(NN=Cc3ccc(C(=O)O)cc3)ncnc12` [Compound 76, 4-Carboxybenzaldehyde (6-(4-hydroxyphenyl)-7-methylthieno[3,2-d]pyrimidin-4-yl]hydrazone], the IC50 is 41 nM. Then `CCOc1ccccc1-c1sc2c(NN=Cc3ccccc3Cl)ncnc2c1C` [Compound 77, 2-Chlorobenzaldehyde (6-(2-ethoxyphenyl)-7-methylthieno[3,2-d]pyrimidin-4-yl)hydrazone], with 1400 nM; and `CCOc1ccccc1-c1sc2c(NN=Cc3ccccc3F)ncnc2c1C` [Compound 78, 2-Fluorobenzaldehyde (6-(2-ethoxyphenyl)-7-methylthieno[3,2-d]pyrimidin-4-yl)hydrazone], with 0.84 nM; and `CCOc1ccccc1-c1sc2c(NN=Cc3ccc(OC)cc3OC)ncnc2c1C` [Compound 79, 2,4-Dimethoxybenzaldehyde (6-(2-ethoxyphenyl)-7-methylthieno[3,2-d]pyrimidin-4-yl)hydrazone], with 250 nM. Consider `C=CCOc1ccccc1-c1sc2c(NN=Cc3ccc(OC)c(O)c3)ncnc2c1C` [Compound 80, 3-Hydroxy-4-methoxybenzaldehyde (6-(2-allyloxyphenyl)-7-methylthieno[3,2-d]pyrimidin-4-yl)hydrazone], for which the IC50 was determined as 6.5 nM.

For `Cc1c(-c2ccccc2OCc2ccccc2)sc2c(NN=Cc3cccnc3)ncnc12` [Compound 82, 3-Pyridinecarboxaldehyde (6-(2-benzyloxyphenyl)-7-methylthieno[3,2-d]pyrimidin-4-yl)hydrazone], the 50% inhibitory concentration (IC50) amounted to 3900 nM.

For `CCCOc1ccccc1-c1sc2c(NN=Cc3ccc(OC)c(O)c3)ncnc2c1C` [Compound 83, 3-Hydroxy-4-methoxybenzaldehyde (7-methyl-6-(2-propoxyphenyl)thieno[3,2-d]pyrimidin-4-yl)hydrazone], the IC50 is 29 nM. Take `CCOc1ccccc1-c1sc2c(NN=Cc3ccsc3)ncnc2c1O` [Compound 93, 3-Thiophenecarboxaldehyde (6-(2-ethoxyphenyl)-7-hydroxythieno[3,2-d]pyrimidin-4-yl)hydrazone]: the IC50 stood at 2.8 nM. Then `CCOc1ccccc1-c1sc2c(NN=Cc3ncc[nH]3)ncnc2c1O` [Compound 97, 2-Imidazolecarboxaldehyde (6-(2-ethoxyphenyl)-7-hydroxythieno[3,2-d]pyrimidin-4-yl)hydrazone], with 55 nM; and `CCOc1cc(F)ccc1-c1sc2c(NN=Cc3cccs3)ncnc2c1C` [Compound 106, 2-Thiophenecarboxaldehyde (6-(2-ethoxy-4-fluorophenyl)-7-methythieno[3,2-d]pyrimidin-4-yl)hydrazone], with 9.5 nM; and `CCOc1cc(F)ccc1-c1sc2c(NN=Cc3cccs3)ncnc2c1CO` [Compound 107, 2-Thiophenecarboxaldehyde (6-(2-ethoxy-4-fluorophenyl)-7-hydroxymethylthieno[3,2-d]pyrimidin-4-yl)hydrazone], with 55 nM. Then `CCOc1cc(F)ccc1-c1sc2c(NN=Cc3cccs3)ncnc2c1O` [Compound 109, 2-Thiophenecarboxaldehyde (6-(2-ethoxy-4-fluorophenyl)-7-hydroxythieno[3,2-d]pyrimidin-4-yl)hydrazone], with 1.1 nM. Consider `CCOc1ccccc1-c1sc2c(NN=Cc3c[nH]c(=O)[nH]c3=O)ncnc2c1O` [Compound 113, 2,4-Dioxo-1,2,3,4-tetrahydro-pyrimidine-5-carbaldehyde (6-(2-ethoxyphenyl)-7-hydroxythieno[3,2-d]pyrimidin-4-yl)hydrazone], for which the IC50 came to 28 nM. The value for `CCOc1ccccc1-c1sc2c(NN=Cc3ccc(C(=O)OC)cc3)ncnc2c1O` [Compound 120, Methyl 4-formyl benzoate (6-(2-ethoxyphenyl)-7-hydroxythieno[3,2-d]pyrimidin-4-yl)hydrazone] was 5.9 nM. The value for `CCOc1ccccc1-c1sc2c(NN=Cc3ccc(F)c(Cl)c3)ncnc2c1O` [Compound 125, 3-Chloro-4-fluorobenzaldehyde (6-(2-ethoxyphenyl)-7-hydroxythieno[3,2-d]pyrimidin-4-yl)hydrazone] was 45 nM. The value for `CCOc1ccccc1-c1sc2c(NN=Cc3ccc(C)s3)ncnc2c1O` [Compound 128, 5-Methyl-2-thiophenecarboxaldehyde (6-(2-ethoxyphenyl)-7-hydroxythieno[3,2-d]pyrimidin-4-yl)hydrazone] was 2.8 nM. Regarding `CCOc1ccccc1-c1sc2c(NN=Cc3ccoc3)ncnc2c1O` [Compound 129, 3-Furancarboxaldehyde(6-(2-ethoxyphenyl)-7-hydroxythieno[3,2-d]pyrimidin-4-yl)hydrazone], the IC50 turned out to be 3.4 nM. The value for `CCOc1ccccc1-c1sc2c(NN=Cc3ccc(NC(C)=O)cc3)ncnc2c1O` [Compound 132, 4-Acetamidobenzaldehyde (6-(2-ethoxyphenyl)-7-hydroxythieno[3,2-d]pyrimidin-4-yl)hydrazone] was 2.4 nM.
